From EPA's ToxRefDB 2

Legend:
rat [1] = conditions: Combined chronic toxicity/carcinogenicity, sprague dawley, Oral, Feed, dose end: 2 year
mouse [2] = conditions: Carcinogenicity, cd1, Oral, Feed, dose end: 97 week, group: systemic
mouse [3] = conditions: Subchronic oral toxicity in rodents, cd1, Feed, dose end: 4 week, group: systemic
rat [4] = conditions: Multigenerational reproductive toxicity study, other, Oral, Feed, dose end: 2 generation
rat [5] = conditions: Prenatal developmental toxicity study, fischer, Oral, Feed, dose end: 15 GD
dog [6] = conditions: Subchronic oral toxicity in nonrodent, beagle, Feed, dose end: 13 week, group: systemic, systemic / hematology / erythrocyte (rbc) count differential / erythrocyte (rbc) + systemic / in life observation / body weight / body …
dog [7] = conditions: Chronic toxicity, beagle, Oral, Feed, dose end: 52 week
dog [8] = conditions: Subchronic oral toxicity in nonrodent, beagle, Feed, dose end: 6 month
rat [9] = conditions: Subchronic oral toxicity in rodents, fischer, Feed, dose end: 13 week
[10] = group: cholinesterase, cholinesterase / cholinesterase / cholinesterase / erythrocyte cholinesterase (che)
[11] = group: cholinesterase, cholinesterase / cholinesterase / cholinesterase / erythrocyte cholinesterase (che) + cholinesterase / cholinesterase / cholinesterase / …
[12] = group: systemic, systemic / pathology microscopic / spleen / hematopoietic cell proliferation
[13] = group: systemic, systemic / pathology microscopic / spleen / hematopoietic cell proliferation + systemic / hematology / erythrocyte (rbc) count differential…
[14] = systemic / clinical chemistry / alanine aminotransferase (alt/sgpt) / alanine aminotransferase (alt/sgpt) + systemic / clinical chemistry / …
[15] = systemic / organ weight / spleen / absolute
[16] = group: offspring, developmental / offspring survival late / viability index / viability index
[17] = group: offspring, developmental / offspring survival late / viability index / viability index + systemic / in life observation / body weight / offspring (pup…
[18] = group: parental, systemic / in life observation / body weight / body weight + systemic / in life observation / body weight / body weight gain + systemic / in…
[19] = group: developmental, developmental / developmental malformation / bone / bipartite ossification + developmental / developmental malformation / general / crown-…
[20] = group: maternal, systemic / in life observation / body weight / body weight gain + reproductive / reproductive performance / pregnancy / pregnancy + …
[21] = group: cholinesterase, cholinesterase / cholinesterase / cholinesterase / brain cholinesterase (che) + cholinesterase / cholinesterase / cholinesterase / …
[22] = group: cholinesterase, cholinesterase / cholinesterase / cholinesterase / plasma cholinesterase (che)
[23] = group: systemic, systemic / hematology / erythrocyte (rbc) count differential / erythrocyte (rbc) + systemic / hematology / hematocrit (hct) / hematocrit (…
[24] = group: systemic, systemic / clinical chemistry / alanine aminotransferase (alt/sgpt) / alanine aminotransferase (alt/sgpt) + systemic / organ weight / liver…
[25] = group: cholinesterase, cholinesterase / cholinesterase / cholinesterase / brain cholinesterase (che)
[26] = group: systemic, systemic / clinical chemistry / calcium / calcium + systemic / hematology / leukocyte (wbc) count differential / leukocyte (wbc) + systemic…

Q: For `CSC(C)=NOC(=O)N(C)SN(C)C(=O)ON=C(C)SC` [Thiodicarb], which LEL (rat [1]; [10]) is on record?
A: Its LEL is 15 mg/kg/day.

Q: What about the LOAEL (rat [1]; [10]) of the same compound?
A: Its LOAEL is 15 mg/kg/day.

Q: And the NEL (rat [1]; [11])?
A: Its NEL is 4.5 mg/kg/day.

Q: What about the NOAEL (rat [1]; [11]) of the same compound?
A: The NOAEL was 4.5 mg/kg/day.

Q: What about the LEL (rat [1]; [12]) of the same compound?
A: The LEL was 12 mg/kg/day.

Q: And the LOAEL (rat [1]; [12])?
A: The LOAEL was 12 mg/kg/day.

Q: What about the NEL (rat [1]; [13]) of the same compound?
A: The NEL was 3.3 mg/kg/day.

Q: What about the NOAEL (rat [1]; [13]) of the same compound?
A: The NOAEL was 3.3 mg/kg/day.

Q: What about the LOAEL (mouse [2]; [14]) of the same compound?
A: Its LOAEL is 1000 mg/kg/day.

Q: And the NOAEL (mouse [2]; [14])?
A: Its NOAEL is 70 mg/kg/day.

Q: And the NEL (mouse [2]; systemic / in life observation / body weight / body weight + systemic / organ weight / kidney / absolute + systemic / organ weight / kidney…)?
A: The NEL was 5 mg/kg/day.

Q: What about the LEL (mouse [2]; systemic / pathology gross / spleen / enlarged + systemic / organ weight / liver / absolute + systemic / organ weight / spleen / absolute + …) of the same compound?
A: The LEL was 70 mg/kg/day.

Q: What about the LOAEL (mouse [3]; systemic / in life observation / body weight / body weight gain) of the same compound?
A: The LOAEL was 734 mg/kg/day.

Q: What about the LEL (mouse [3]; [15]) of the same compound?
A: Its LEL is 6.2 mg/kg/day.

Q: And the NEL (mouse [3]; [15])?
A: Its NEL is under 6.2 mg/kg/day.

Q: And the NOAEL (mouse [3]; systemic / organ weight / spleen / absolute + systemic / in life observation / body weight / body weight gain + systemic / in life …)?
A: Its NOAEL is 346 mg/kg/day.

Q: What about the LOAEL (rat [4]; [16]) of the same compound?
A: The LOAEL was 5 mg/kg/day.

Q: And the NOAEL (rat [4]; [16])?
A: The NOAEL was under 5 mg/kg/day.

Q: And the LEL (rat [4]; [17])?
A: The LEL was 5 mg/kg/day.

Q: And the NEL (rat [4]; [17])?
A: The NEL was under 5 mg/kg/day.

Q: And the LEL (rat [4]; [18])?
A: The LEL was 15 mg/kg/day.

Q: And the LOAEL (rat [4]; [18])?
A: Its LOAEL is 15 mg/kg/day.

Q: What about the NEL (rat [4]; [18]) of the same compound?
A: Its NEL is 5 mg/kg/day.

Q: And the NOAEL (rat [4]; [18])?
A: The NOAEL was 5 mg/kg/day.

Q: What about the LEL (rat [5]; [19]) of the same compound?
A: Its LEL is 100 mg/kg/day.

Q: What about the LOAEL (rat [5]; [19]) of the same compound?
A: The LOAEL was 100 mg/kg/day.

Q: What about the NEL (rat [5]; [19]) of the same compound?
A: The NEL was 3 mg/kg/day.

Q: And the NOAEL (rat [5]; [19])?
A: Its NOAEL is 3 mg/kg/day.

Q: And the LEL (rat [5]; group: maternal, reproductive / reproductive performance / pregnancy / pregnancy)?
A: The LEL was 3 mg/kg/day.

Q: What about the LOAEL (rat [5]; group: maternal, systemic / in life observation / body weight / body weight gain) of the same compound?
A: The LOAEL was 1 mg/kg/day.

Q: What about the NEL (rat [5]; [20]) of the same compound?
A: The NEL was 1 mg/kg/day.

Q: And the NOAEL (rat [5]; [20])?
A: Its NOAEL is 0.5 mg/kg/day.

Q: What about the LEL (dog [6]) of the same compound?
A: Its LEL is 40 mg/kg/day.

Q: What about the LOAEL (dog [6]) of the same compound?
A: Its LOAEL is 40 mg/kg/day.

Q: And the NEL (dog [6])?
A: Its NEL is 15 mg/kg/day.

Q: And the NOAEL (dog [6])?
A: The NOAEL was 15 mg/kg/day.

Q: What about the LOAEL (dog [7]; [21]) of the same compound?
A: Its LOAEL is 12.8 mg/kg/day.

Q: What about the NOAEL (dog [7]; [21]) of the same compound?
A: Its NOAEL is 4.4 mg/kg/day.

Q: What about the LEL (dog [7]; [22]) of the same compound?
A: The LEL was 4.5 mg/kg/day.

Q: What about the NEL (dog [7]; [22]) of the same compound?
A: Its NEL is under 4.5 mg/kg/day.

Q: What about the LEL (dog [7]; [23]) of the same compound?
A: Its LEL is 38.3 mg/kg/day.

Q: What about the LOAEL (dog [7]; [23]) of the same compound?
A: Its LOAEL is 38.3 mg/kg/day.

Q: And the NEL (dog [7]; [23])?
A: Its NEL is 12.8 mg/kg/day.

Q: And the NOAEL (dog [7]; [23])?
A: Its NOAEL is 12.8 mg/kg/day.

Q: What about the LEL (dog [8]; [11]) of the same compound?
A: Its LEL is 45 mg/kg/day.

Q: What about the LOAEL (dog [8]; [11]) of the same compound?
A: Its LOAEL is 45 mg/kg/day.

Q: And the NEL (dog [8]; [11])?
A: Its NEL is 15 mg/kg/day.

Q: What about the NOAEL (dog [8]; [11]) of the same compound?
A: Its NOAEL is 15 mg/kg/day.

Q: What about the LEL (dog [8]; [24]) of the same compound?
A: Its LEL is 45 mg/kg/day.

Q: And the LOAEL (dog [8]; [24])?
A: Its LOAEL is 45 mg/kg/day.

Q: What about the NEL (dog [8]; [24]) of the same compound?
A: The NEL was 15 mg/kg/day.

Q: And the NOAEL (dog [8]; [24])?
A: The NOAEL was 15 mg/kg/day.

Q: And the LEL (rat [9]; [25])?
A: Its LEL is 30 mg/kg/day.

Q: What about the LOAEL (rat [9]; [25]) of the same compound?
A: Its LOAEL is over 30 mg/kg/day.

Q: What about the NEL (rat [9]; [25]) of the same compound?
A: Its NEL is 10 mg/kg/day.

Q: What about the NOAEL (rat [9]; [25]) of the same compound?
A: Its NOAEL is at least 30 mg/kg/day.

Q: And the LOAEL (rat [9]; [26])?
A: Its LOAEL is over 30 mg/kg/day.

Q: And the NEL (rat [9]; [26])?
A: Its NEL is 3 mg/kg/day.

Q: What about the NOAEL (rat [9]; [26]) of the same compound?
A: The NOAEL was at least 30 mg/kg/day.

Q: What about the LEL (rat [9]; group: systemic, systemic / hematology / leukocyte (wbc) count differential / leukocyte (wbc) + systemic / in life observation / body weight / body weight) of the same compound?
A: Its LEL is 10 mg/kg/day.
